Results on one molecule are retold here after US8394401B2, “Antiobesity or antihyperlipidemic food, feeding stuff or supplement containing lysine” (Ajinomoto Co., Inc., priority 2004, dated 2013).

What all share (format): in vivo, C57BL/6J male mice
Test [1] can be described thus: Experimental Example 1: high fat diet-induced obese mice fed a 20% protein energy diet supplemented with lysine hydrochloride for 8 weeks. From the text:
A high fat diet (dietary energy composition ratio was protein:fat:carbohydrate=17:46:37) was provided for 16 weeks to 30 5-week-old C57BL/6J male mice. At the 16th week, the 30 mice were divided into 3 groups, each consisting of 10 individuals (n=10), and from then, the following diets were provided for 8 weeks to the 3 groups, respectively, (1) 20% protein energy diet (LF; protein:fat:carbohydrate=2:7:1), (2) 20% protein energy diet supplemented with 1% lysine hydrochloride (LF1K; containing 1% lysine hydrochloride (0.8% lysine base)), and (3) 20% protein energy diet supplemented with 3% lysine hydrochloride (LF3K; containing 3% lysine hydrochloride (2.4% lysine base)). Herein, the term “lysine base” refers to free-form lysine. Further, as a nonobese group, a group (LL) was prepared consisting of 10 mice of the same species that were fed with 20% protein energy diet (protein:fat:carbohydrate=2:7:1) from the start of the experiment until the end, i.e., for 24 weeks.
The food intakes were measured and the energy intakes were determined from the energy per g of each test diet. After 8 weeks of the experimental period, the body weight and the total fat weight (sum of epididymal fat, perirenal fat, mesenteric fat, and subcutaneous fat in the periphery of the femoral region) were measured. Statistical analysis was performed using Dunnett's test employing the LF group as the control.

Test [2] in a line: Experimental Example 2: mice fed 10/20/40/60% protein energy diets with or without 3% lysine hydrochloride for 4 weeks. Conditions: after 4 weeks, vs respective diet without lysine supplementation. From the text: The following feeding stuffs were respectively provided for 4 weeks to 8 groups of 9-week-old C57BL/6J male mice, consisting of 10 individuals per group (n=10): (1) 10% protein energy diet (LP; dietary energy composition ratio was protein:fat:carbohydrate=1:1:8), (2) 10% protein energy diet supplemented with lysine hydrochloride (LPK), (3) 20% protein energy diet (LF; protein:fat:carbohydrate=2:1:7), (4) 20% protein energy diet supplemented with lysine hydrochloride (LFK), (5) 40% protein energy diet (MP; protein:fat:carbohydrate =4:1:5), (6) 40% protein energy diet supplemented with lysine hydrochloride (MPK), (7) 60% protein energy diet (HP; protein:fat:carbohydrate=6:1:3), and (8) 60% protein energy diet supplemented with lysine hydrochloride (HPK). The diets, when supplemented with lysine hydrochloride, were added with 3% lysine hydrochloride.
After 4 weeks the experimental period, the body weight, the total fat weight(sum of epididymal fat, perirenal fat, mesenteric fat, and subcutaneous fat in the periphery of the femoral region), and the kidney weight were measured. Statistical analysis was performed using Dunnett's test, employing the respective groups fed with the diets without lysine supplementation as the controls.

Test [3] in a line: Experimental Example 3: mice fed high fat feed supplemented with lysine hydrochloride, triglyceride concentration in blood plasma. An excerpt:
The following diets were respectively provided for 8 weeks to 4 groups of 9-week-old C57BL/6J male mice, consisting of 10 individuals per group (n=10): (1) 20% protein energy diet (LF; dietary energy composition ratio was protein:fat:carbohydrate=2:7:1), (2) high fat feed (HF; protein:fat:carbohydrate=17:46:37), (3) high fat food supplemented with 1% lysine hydrochloride (HF1K; containing 1% lysine hydrochloride (0.8% lysine base)), and (4) high fat feed supplemented with 3% lysine hydrochloride (HF3K; containing 3% lysine hydrochloride (2.4% lysine base)).
After 8 weeks of the experimental period, the triglyceride concentration in the blood plasma was measured. Statistical analysis was performed using Dunnett's test employing the HF group as the control.

Setting [4] is: after 8 weeks, 1% or 3% lysine hydrochloride in 20% protein energy diet, vs LF group, Dunnett's test p<0.05, dose-dependent.
The mark [5] stands for this setting: mice, feeding stuff having 20% protein energy, lysine component(s) 0.8 to 3.0 wt % on the dry matter basis.

Consider `Cl.NCCCC[C@H](N)C(=O)O` [lysine hydrochloride, L-Lysine hydrochloride], for which, in test [1] (setting [4]), the “body weight upon the autopsy” value is reported as “significant decrease”; the “total fat weight (sum of epididymal, perirenal, mesenteric and femoral subcutaneous fat)” value is recorded as “significant decrease”. Moreover, in test [1] (setting [5]), the “increase in body fat” value is reported as “suppressed” and the “increase in body weight” value was “suppressed”. For the same molecule, the total fat weight entry in test [2] was “decrease”. Besides, the body weight entry in test [2] (Dunnett's test p<0.05) is reported as “decrease”. Moreover, in test [3] (after 8 weeks, 1% or 3% lysine hydrochloride in high fat feed, vs HF group, Dunnett's test p<0.05), the “increase in the triglyceride concentration in the blood plasma due to intake of the high fat diet” value is reported as “significantly inhibited”. The “improvement effect for hyperlipidemia” value in test [3] (mice, lysine component(s) 0.8 to 3.0 wt % on the dry matter basis) is listed as “improvement effect for hyperlipidemia was exhibited”.
